Laboratory results: patent US20250059198A1, “BRM DEGRADING COMPOUNDS AND ASSOCIATED METHODS OF USE” (Arvinas Operations, Inc., priority 2021, published 2025)

Target: T1, BRM (Homo sapiens, UniProt P51531)
T1 construct: Western Blot Screen of BRM Degradation in SW1573 Cells; endogenous in cells; host or cells: SW1573 cells
Test: BRM degradation (Dmax and DC50) in SW1573 cells, Western blot screen / In-Cell Western screen
Type: cell-based
Details: overnight (18-20 hours) treatment; for Dmax: read-out: Dmax (%)** (% degraded)
Procedure, shortened: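 SW1573 cells were treated with compound for 18–20 h (final 0.1% DMSO). BRM was quantified either by Western blot of RIPA lysates or by fixed-cell In-Cell Western (LI-COR, 800/680 nm), each normalised to alpha-tubulin, giving Dmax and DC50.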

T1 sequence (P51531 whole entry): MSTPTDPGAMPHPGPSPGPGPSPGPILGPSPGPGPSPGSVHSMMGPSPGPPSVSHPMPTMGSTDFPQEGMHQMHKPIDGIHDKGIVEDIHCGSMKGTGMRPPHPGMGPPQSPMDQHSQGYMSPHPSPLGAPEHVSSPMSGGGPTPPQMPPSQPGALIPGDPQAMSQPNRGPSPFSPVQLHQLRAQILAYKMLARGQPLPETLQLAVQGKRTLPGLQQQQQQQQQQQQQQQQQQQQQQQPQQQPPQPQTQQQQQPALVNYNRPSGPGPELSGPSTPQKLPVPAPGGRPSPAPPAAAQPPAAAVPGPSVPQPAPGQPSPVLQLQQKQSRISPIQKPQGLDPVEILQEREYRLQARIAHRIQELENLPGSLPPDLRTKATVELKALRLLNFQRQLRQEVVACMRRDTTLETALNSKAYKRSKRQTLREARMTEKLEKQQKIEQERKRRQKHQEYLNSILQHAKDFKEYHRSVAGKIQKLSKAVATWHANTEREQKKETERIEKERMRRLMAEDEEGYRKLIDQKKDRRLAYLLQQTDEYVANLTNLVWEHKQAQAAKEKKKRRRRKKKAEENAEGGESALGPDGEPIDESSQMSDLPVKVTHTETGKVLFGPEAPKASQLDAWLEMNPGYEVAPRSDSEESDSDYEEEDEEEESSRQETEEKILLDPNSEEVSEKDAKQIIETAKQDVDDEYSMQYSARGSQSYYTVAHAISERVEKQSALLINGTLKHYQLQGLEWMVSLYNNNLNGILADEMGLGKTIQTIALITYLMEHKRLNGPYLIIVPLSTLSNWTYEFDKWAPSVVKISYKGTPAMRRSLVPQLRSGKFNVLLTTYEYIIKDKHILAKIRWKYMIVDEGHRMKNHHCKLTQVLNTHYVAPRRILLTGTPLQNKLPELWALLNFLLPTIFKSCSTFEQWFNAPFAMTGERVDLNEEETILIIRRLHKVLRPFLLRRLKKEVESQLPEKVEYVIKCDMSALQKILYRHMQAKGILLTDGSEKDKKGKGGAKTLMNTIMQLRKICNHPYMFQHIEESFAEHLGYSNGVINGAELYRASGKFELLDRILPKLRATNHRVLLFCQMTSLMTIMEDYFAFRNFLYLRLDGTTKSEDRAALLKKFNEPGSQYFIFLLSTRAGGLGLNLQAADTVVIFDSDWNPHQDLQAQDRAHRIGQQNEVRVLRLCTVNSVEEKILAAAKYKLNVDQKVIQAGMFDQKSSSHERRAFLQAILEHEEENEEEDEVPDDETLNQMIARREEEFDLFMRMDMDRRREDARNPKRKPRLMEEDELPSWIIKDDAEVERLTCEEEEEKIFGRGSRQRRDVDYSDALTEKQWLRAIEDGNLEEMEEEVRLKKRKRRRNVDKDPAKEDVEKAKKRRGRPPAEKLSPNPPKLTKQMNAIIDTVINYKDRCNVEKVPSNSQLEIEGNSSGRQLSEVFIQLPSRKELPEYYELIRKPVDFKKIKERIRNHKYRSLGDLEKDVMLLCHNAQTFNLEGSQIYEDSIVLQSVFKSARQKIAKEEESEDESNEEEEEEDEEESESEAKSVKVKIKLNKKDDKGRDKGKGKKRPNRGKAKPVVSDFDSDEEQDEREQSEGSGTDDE

Row | Compound | DC50 [nM] | Dmax [%]
1 | Cc1ncsc1-c1ccc([C@H](C)NC(=O)[C@@H]2C[C@@H](O)CN2C(=O)[C@@H](c2cc(N3CCC(CN4CCC5(CC4)CC(N4CCO[C@H]([C@@H](C)n6cc(C#Cc7cc(-c8ccccc8O)nnc7N)cn6)C4)C5)CC3)no2)C(C)C)cc1 [Compound 98, (2S,4R)-1-[(2R)-2-{3-[4-({2-[(2S)-2-[(1R)-1-(4-{2-[3-amino-6-(2-hydroxyphenyl)pyridazin-4-yl]ethynyl}-1H-pyrazol-1-yl)ethyl]morpholin-4-yl]-7-azaspiro[3.5]nonan-7-yl}methyl)piperidin-1-yl]-1,2-oxazol-5-yl}-3-methylbutanoyl]-4-hydroxy-N-[(1S)-1-[4-(4-methyl-1,3-thiazol-5-yl)phenyl]ethyl]pyrrolidine-2-carboxamide] | < 2.5 | > 75
2 | Cc1ncsc1-c1ccc([C@H](C)NC(=O)C2C[C@@H](O)CN2C(=O)[C@@H](c2cc(N3CCC(CN4CC[C@H](Oc5cc(N6C7CCC6CN(c6cc(-c8ccccc8O)nnc6N)C7)ccn5)[C@H](F)C4)CC3)no2)C(C)C)cc1 (stereo in doubt) [Compound 50, (2S,4R)-1-[(2R)-2-[3-(4-{[(3R,4S)-4-[(4-{3-[3-amino-6-(2-hydroxyphenyl)pyridazin-4-yl]-3,8-diazabicyclo[3.2.1]octan-8-yl}pyridin-2-yl)oxy]-3-fluoropiperidin-1-yl]methyl}piperidin-1-yl)-1,2-oxazol-5-yl]-3-methylbutanoyl]-4-hydroxy-N-[(1S)-1-[4-(4-methyl-1,3-thiazol-5-yl)phenyl]ethyl]pyrrolidine-2-carboxamide] | < 2.5 | > 75
3 | CC(C)[C@@H](C(=O)N1C[C@H](O)C[C@H]1C(=O)N[C@@H](C)c1ccc(-c2ccnn2C)cc1)c1cc(N2CCC(CN3CCC4(CC3)CC(N3CCO[C@@H](CN5C6CCC5CN(c5cc(-c7ccccc7O)nnc5N)C6)C3)C4)CC2)no1 [Compound 106, (2S,4R)-1-[(2R)-2-{3-[4-({2-[(2R)-2-({3-[3-amino-6-(2-hydroxyphenyl)pyridazin-4-yl]-3,8-diazabicyclo[3.2.1]octan-8-yl}methyl)morpholin-4-yl]-7-azaspiro[3.5]nonan-7-yl}methyl)piperidin-1-yl]-1,2-oxazol-5-yl}-3-methylbutanoyl]-4-hydroxy-N-[(1S)-1-[4-(1-methyl-1H-pyrazol-5-yl)phenyl]ethyl]pyrrolidine-2-carboxamide] | < 2.5 | > 75
4 | CC(C)[C@H](C(=O)N1C[C@H](O)C[C@H]1C(=O)N[C@@H](C)c1ccc(C#N)cc1)c1cc(O[C@H]2C[C@H](CN3CCC(O[C@H]4C[C@H](Oc5cc(N6C7CCC6CN(c6cc(-c8ccccc8O)nnc6N)C7)ccn5)C4)CC3)C2)no1 [Compound 1, (2S,4R)-N-[(1S)-1-(4-cyanophenyl)ethyl]-4-hydroxy-1-[(2S)-3-methyl-2-{3-[(1r,3r)-3-({4-[(1r,3r)-3-[(4-{3-[3-amino-6-(2-hydroxyphenyl)pyridazin-4-yl]-3,8-diazabicyclo[3.2.1]octan-8-yl}pyridin-2-yl)oxy]cyclobutoxy]piperidin-1-yl}methyl)cyclobutoxy]-1,2-oxazol-5-yl}butanoyl]pyrrolidine-2-carboxamide] | ≥ 30 | 
5 | Cc1ncsc1-c1ccc([C@H](C)NC(=O)[C@@H]2C[C@@H](O)CN2C(=O)[C@@H](c2cc(N3CCC(CN4CCC(O[C@H]5C[C@H](N6CC(F)(F)OC7(CCN(c8cc(-c9ccccc9O)nnc8N)CC7)C6)C5)CC4)CC3)no2)C(C)C)cc1 [Compound 55, (2S,4R)-4-hydroxy-N-[(1S)-1-[4-(4-methyl-1,3-thiazol-5-yl)phenyl]ethyl]-1-[(2R)-3-methyl-2-{3-[4-({4-[(1r,3r)-3-{9-[3-amino-6-(2-hydroxyphenyl)pyridazin-4-yl]-2,2-difluoro-1-oxa-4,9-diazaspiro[5.5]undecan-4-yl}cyclobutoxy]piperidin-1-yl}methyl)piperidin-1-yl]-1,2-oxazol-5-yl}butanoyl]pyrrolidine-2-carboxamide] | < 2.5 | > 75
6 | Cc1nccn1-c1ccc([C@H](C)NC(=O)[C@@H]2C[C@@H](O)CN2C(=O)[C@@H](c2cc(N3CCC(CN4CCC(O[C@H]5C[C@H](N6CCC(C(C)n7cc(C#Cc8cc(-c9ccccc9O)nnc8N)cn7)CC6)C5)CC4)CC3)no2)C(C)C)cc1 (stereo partly drawn) [Compound 91, (2S,4R)-4-hydroxy-N-[(1S)-1-[4-(2-methyl-1H-imidazol-1-yl)phenyl]ethyl]-1-[(2R)-3-methyl-2-{3-[4-({4-[(1r,3r)-3-{4-[1-(4-{2-[3-amino-6-(2-hydroxyphenyl)pyridazin-4-yl]ethynyl}-1H-pyrazol-1-yl)ethyl]piperidin-1-yl}cyclobutoxy]piperidin-1-yl}methyl)piperidin-1-yl]-1,2-oxazol-5-yl}butanoyl]pyrrolidine-2-carboxamide] | < 2.5 | > 75
7 | Cc1ncsc1-c1ccc([C@H](C)NC(=O)[C@@H]2C[C@@H](O)CN2C(=O)[C@H](c2cc(N3CCN(C(=O)N4CCC(O[C@H]5C[C@H](Oc6cc(N7C8CCC7CN(c7cc(-c9ccccc9O)nnc7N)C8)ccn6)C5)CC4)CC3)no2)C(C)C)cc1 [Compound 124, (2S,4R)-4-hydroxy-N-[(1S)-1-[4-(4-methyl-1,3-thiazol-5-yl)phenyl]ethyl]-1-[(2R)-3-methyl-2-[3-(4-{4-[(1r,3r)-3-[(4-{3-[3-amino-6-(2-hydroxyphenyl)pyridazin-4-yl]-3,8-diazabicyclo[3.2.1]octan-8-yl}pyridin-2-yl)oxy]cyclobutoxy]piperidine-1-carbonyl}piperazin-1-yl)-1,2-oxazol-5-yl]butanoyl]pyrrolidine-2-carboxamide] | ≥ 30 | 
8 | Cc1ncsc1-c1ccc([C@H](C)NC(=O)[C@@H]2C[C@@H](O)CN2C(=O)[C@@H](c2cc(N3CCC(CN4CCC5(CC4)CC(N4CCO[C@@H](C(C)n6cc(-c7cc(-c8ccccc8O)nnc7N)cn6)C4)C5)CC3)no2)C(C)C)cc1 (stereo partly drawn) [Compound 89, (2S,4R)-1-[(2R)-2-{3-[4-({2-[(2R)-2-(1-{4-[3-amino-6-(2-hydroxyphenyl)pyridazin-4-yl]-1H-pyrazol-1-yl}ethyl)morpholin-4-yl]-7-azaspiro[3.5]nonan-7-yl}methyl)piperidin-1-yl]-1,2-oxazol-5-yl}-3-methylbutanoyl]-4-hydroxy-N-[(1S)-1-[4-(4-methyl-1,3-thiazol-5-yl)phenyl]ethyl]pyrrolidine-2-carboxamide] | < 2.5 | > 75
9 | Cc1ncsc1-c1ccc([C@H](C)NC(=O)[C@@H]2C[C@@H](O)CN2C(=O)[C@@H](c2cc(OCCN3CCN(CCOc4cc(N5C6CCC5CN(c5cc(-c7cc(F)ccc7O)nnc5N)C6)ccn4)[C@H](C)C3)no2)C(C)C)cc1 [Compound 148, (2S,4R)-1-[(2R)-2-(3-{2-[(3R)-4-{2-[(4-{3-[3-amino-6-(5-fluoro-2-hydroxyphenyl)pyridazin-4-yl]-3,8-diazabicyclo[3.2.1]octan-8-yl}pyridin-2-yl)oxy]ethyl}-3-methylpiperazin-1-yl]ethoxy}-1,2-oxazol-5-yl)-3-methylbutanoyl]-4-hydroxy-N-[(1S)-1-[4-(4-methyl-1,3-thiazol-5-yl)phenyl]ethyl]pyrrolidine-2-carboxamide] | < 2.5 | > 75
10 | CC(C)[C@H](C(=O)N1C[C@H](O)C[C@H]1C(=O)N[C@@H](C)c1ccc(-c2ccnn2C)cc1)c1cc(N2CCC(CN3CCC(O[C@H]4C[C@H](Oc5cc(N6CCN(c7cc(-c8ccccc8O)nnc7N)CC6)ccn5)C4)CC3)CC2)no1 [Compound 2, (2S,4R)-4-hydroxy-N-[(1S)-1-[4-(1-methyl-1H-pyrazol-5-yl)phenyl]ethyl]-1-[(2S)-3-methyl-2-{3-[4-({4-[(1r,3r)-3-[(4-{4-[3-amino-6-(2-hydroxyphenyl)pyridazin-4-yl]piperazin-1-yl}pyridin-2-yl)oxy]cyclobutoxy]piperidin-1-yl}methyl)piperidin-1-yl]-1,2-oxazol-5-yl}butanoyl]pyrrolidine-2-carboxamide] | ≥ 30 | 
11 | Cc1ncsc1-c1ccc([C@H](C)NC(=O)[C@@H]2C[C@@H](O)CN2C(=O)[C@@H](c2cc(N3CCC(CN4CCC(O[C@H]5C[C@@H](N6CCC([C@H](C)n7cc(-c8cc(-c9ccccc9O)nnc8N)cn7)CC6)C5)CC4)CC3)no2)C(C)C)cc1 [Compound 8, (2S,4R)-4-hydroxy-N-[(1S)-1-[4-(4-methyl-1,3-thiazol-5-yl)phenyl]ethyl]-1-[(2R)-3-methyl-2-{3-[4-({4-[(1s,3s)-3-{4-[(1S)-1-{4-[3-amino-6-(2-hydroxyphenyl)pyridazin-4-yl]-1H-pyrazol-1-yl}ethyl]piperidin-1-yl}cyclobutoxy]piperidin-1-yl}methyl)piperidin-1-yl]-1,2-oxazol-5-yl}butanoyl]pyrrolidine-2-carboxamide] | < 2.5 | > 75
12 | Cc1ncsc1-c1ccc([C@H](C)NC(=O)[C@@H]2C[C@@H](O)CN2C(=O)[C@@H](c2cc(N3CCN(C(=O)[C@H]4C[C@H](Oc5cc(N6C7CCC6CN(c6cc(-c8ccccc8O)nnc6N)C7)ccn5)C4)CC3)no2)C(C)C)cc1 [Compound 107, (2S,4R)-4-hydroxy-N-[(1S)-1-[4-(4-methyl-1,3-thiazol-5-yl)phenyl]ethyl]-1-[(2R)-3-methyl-2-(3-{4-[(1r,3r)-3-[(4-{3-[3-amino-6-(2-hydroxyphenyl)pyridazin-4-yl]-3,8-diazabicyclo[3.2.1]octan-8-yl}pyridin-2-yl)oxy]cyclobutanecarbonyl]piperazin-1-yl}-1,2-oxazol-5-yl)butanoyl]pyrrolidine-2-carboxamide] | ≥ 30 | 
